The text below walks through data of article PMC6059433, “Discovery of fragments that target key interactions in the signal recognition particle (SRP) as potential leads for a new class of antibiotics” (PLoS ONE, 2018).

The target of this assay is T1, FtsY (FtsYNG) (Escherichia coli, UniProt P10121).
T1 construct: NG domain, 196–497 aa
Description: SPR (positive control, […] MgCl2 in running buffer); […]-TROSY-HSQC titration. It is filed as binding.

T1 sequence (P10121 196-497): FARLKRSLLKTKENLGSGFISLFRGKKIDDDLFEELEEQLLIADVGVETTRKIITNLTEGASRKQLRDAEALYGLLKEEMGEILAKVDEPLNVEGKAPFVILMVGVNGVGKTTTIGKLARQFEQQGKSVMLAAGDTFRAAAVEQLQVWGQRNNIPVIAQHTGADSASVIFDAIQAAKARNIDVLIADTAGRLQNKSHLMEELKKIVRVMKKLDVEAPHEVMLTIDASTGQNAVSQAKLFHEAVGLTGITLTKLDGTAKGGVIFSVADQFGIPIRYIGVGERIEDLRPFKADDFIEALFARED

As to `Nc1nc2c(ncn2[C@@H]2O[C@H](COP(=O)(O)OP(=O)(O)NP(=O)(O)O)[C@@H](O)[C@H]2O)c(=O)[nH]1` [GMPPNP], the Kd – broadly, the free concentration of one partner at which half of the binding sites on the other are occupied at equilibrium, for simple one-to-one binding – turned out to be 280 ± 80 µM.
